Laboratory results from the supplement of paper PMC10307832.

Tests used:
Assay in all cases: relative viability (nuclei count vs DMSO), 5 days (fraction); higher = more cells survive
Dabrafenib + Trametinib = compound: CC(C)(C)c1nc(-c2cccc(NS(=O)(=O)c3c(F)cccc3F)c2F)c(-c2ccnc(N)n2)s1 [Dabrafenib] + CC(=O)Nc1cccc(-n2c(=O)n(C3CC3)c(=O)c3c(Nc4ccc(I)cc4F)n(C)c(=O)c(C)c32)c1 [Trametinib] (partner 0.02 µM)
In short: (§1)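 Each reported value is a median over duplicate plates. It expresses relative viability: treated-well nuclei count divided by vehicle-well nuclei count. Lung cancer cell lines in 1536-well plates were dosed by pin tool a day after seeding, alone with one drug or with a fixed anchor-drug dose plus five library-drug doses (not always all listed) in √10 steps, and nuclei were counted after 5 days.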

VX-702 + Navitoclax = compound: NC(=O)c1ccc(N(C(N)=O)c2c(F)cccc2F)nc1-c1ccc(F)cc1F [VX-702] + CC1(C)CCC(c2ccc(Cl)cc2)=C(CN2CCN(c3ccc(C(=O)NS(=O)(=O)c4ccc(N[C@H](CCN5CCOCC5)CSc5ccccc5)c(S(=O)(=O)C(F)(F)F)c4)cc3)CC2)C1 [Navitoclax] (partner 0.5 µM)
In short: as §1

Dabrafenib = compound: CC(C)(C)c1nc(-c2cccc(NS(=O)(=O)c3c(F)cccc3F)c2F)c(-c2ccnc(N)n2)s1 [Dabrafenib]
In short: (§2)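 Viability here means nuclei in treated wells divided by nuclei in vehicle wells, reported as the median across plates. Only plates with control CV below 25% and at least one doubling passed. Lung cancer cell lines in 1536-well plates were exposed to five √10-spaced library-drug doses for 5 days and counted from 4× Hoechst images in MetaXpress.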

VX-702 = compound: NC(=O)c1ccc(N(C(N)=O)c2c(F)cccc2F)nc1-c1ccc(F)cc1F [VX-702]
In short: as §2

Row | Cell Line | relative viability (Dabrafenib + Trametinib; first compound 0.003 µM) | relative viability (Dabrafenib + Trametinib; first compound 0.009487 µM) | relative viability (Dabrafenib + Trametinib; first compound 0.03 µM) | relative viability (Dabrafenib + Trametinib; first compound 0.09487 µM) | relative viability (Dabrafenib + Trametinib; first compound 0.3 µM) | relative viability (VX-702 + Navitoclax; first compound 0.02 µM) | relative viability (VX-702 + Navitoclax; first compound 0.2 µM) | relative viability (VX-702 + Navitoclax; first compound 0.6325 µM) | relative viability (VX-702 + Navitoclax; first compound 2 µM) | relative viability (Dabrafenib; 0.003 µM) | relative viability (Dabrafenib; 0.009487 µM) | relative viability (Dabrafenib; 0.03 µM) | relative viability (Dabrafenib; 0.09487 µM) | relative viability (Dabrafenib; 0.3 µM) | relative viability (VX-702; 0.02 µM) | relative viability (VX-702; 0.2 µM) | relative viability (VX-702; 0.6325 µM) | relative viability (VX-702; 2 µM)
1 | 201T | 0.723 | 0.744 | 0.654 | 0.685 | 0.751 | 1.17 | 1.22 | 1.23 | 1.24 | 0.958 | 1.01 | 0.914 | 0.987 | 1.04 | 0.981 | 1 | 1.01 | 0.976
2 | A549 |  |  |  |  |  | 1.25 | 1.23 | 1.28 | 1.42 | 0.928 | 1.03 | 0.93 | 0.93 | 0.969 | 0.999 | 0.928 | 1.02 | 1.07
3 | A-427 | 0.759 | 0.737 | 0.745 | 0.65 | 0.785 | 0.877 | 0.919 | 0.905 | 0.962 |  | 0.983 | 0.849 | 0.797 | 1.03 | 0.985 | 0.964 | 1.04 | 0.754
4 | ABC-1 |  |  |  |  |  |  |  |  |  | 0.833 | 1.06 | 0.871 | 0.844 | 1.02 | 0.979 | 0.813 | 0.903 | 1.02
5 | BEN |  | 1.07 |  | 0.842 | 1.11 | 0.0513 | 0.104 | 0.0606 | 0.0662 |  | 1.05 |  | 0.889 | 1.07 | 0.853 | 0.879 | 0.866 | 1.06
6 | CAL-12T | 0.327 | 0.319 | 0.382 | 0.334 | 0.445 | 1.22 | 1.18 | 1.3 | 1.35 | 0.96 | 1.01 | 1.05 | 0.946 | 1.18 | 0.959 | 0.994 | 1.04 | 1.07
7 | COR-L23 | 0.528 | 0.432 | 0.626 | 0.512 | 0.656 | 0.968 | 0.979 | 1.18 | 1.27 | 0.976 | 1 | 0.968 | 0.93 | 0.998 | 1.17 | 1.05 | 1.16 | 1.21
8 | COR-L 105 | 0.418 | 0.478 | 0.46 | 0.479 | 0.521 | 0.82 | 0.61 | 0.851 | 1.08 | 0.851 | 0.995 | 0.927 | 0.955 | 1.13 | 0.941 | 0.961 | 0.879 | 0.861
9 | Calu-6 |  |  |  |  |  | 0.927 | 0.811 | 1.01 | 1.01 | 1.03 | 1.03 | 0.909 | 0.805 | 0.786 | 1.11 | 1 | 1.08 | 1.21
10 | ChaGo-K-1 | 0.884 | 0.929 | 0.933 | 0.875 | 0.905 | 0.991 | 0.403 | 0.898 | 1.4 | 0.787 | 0.951 | 0.876 | 0.912 | 1.01 | 1.03 | 0.993 | 0.994 | 1.02
11 | EBC-1 |  |  |  |  |  | 0.441 | 0.413 | 0.337 | 0.389 | 0.856 | 0.987 | 0.895 | 0.533 | 0.391 | 1.08 | 0.999 | 0.968 | 1.08
12 | EKVX |  | 0.367 | 0.304 | 0.434 | 0.462 | 0.96 | 0.932 | 0.882 | 0.986 | 0.693 | 1.03 | 0.932 | 0.941 | 1.14 | 0.95 | 0.863 | 0.891 | 0.923
13 | EMC-BAC-2 |  | 0.827 | 1 | 1.03 | 1.2 | 1.19 | 1.13 | 1.18 | 1.24 |  | 1.04 | 0.706 | 0.701 | 0.751 | 1 | 0.943 | 0.98 | 0.842
14 | EPLC-272H |  | 0.262 | 0.312 | 0.349 | 0.329 | 1.23 | 1.08 | 1.05 | 1.17 | 0.509 | 1.01 | 0.971 | 0.785 | 0.964 | 1.03 | 0.827 | 1.02 | 1.01
15 | H3255 | 0.641 | 0.584 | 0.668 | 0.639 | 0.789 | 0.508 | 0.446 | 0.501 | 0.557 | 0.868 | 1.05 | 0.992 | 0.873 | 1.04 | 0.978 | 0.966 | 0.96 | 1.05
16 | HARA |  | 0.805 | 0.832 | 0.721 | 1 | 1.08 | 1.14 | 1.05 | 1.09 | 0.737 | 1 |  | 0.922 | 1.12 | 0.964 | 0.897 | 0.965 | 0.969
17 | HCC-15 | 0.354 | 0.437 | 0.378 | 0.374 | 0.506 | 0.691 | 0.648 | 0.656 | 0.699 | 0.942 | 1.04 | 1.04 | 0.928 | 0.921 | 0.989 | 0.982 | 1.08 | 1.03
18 | HCC-44 | 0.926 | 0.993 | 1.18 | 0.876 | 1.11 | 0.93 | 0.99 | 0.881 | 1.09 | 0.885 | 0.971 | 1.01 | 0.921 | 0.933 | 1.05 | 0.979 | 1.08 | 1.05
19 | HCC-78 |  | 0.688 | 0.668 | 0.761 | 0.89 | 0.673 | 0.772 | 0.806 | 0.852 |  | 1.03 | 0.932 | 0.816 | 1.05 | 0.947 | 0.878 | 0.98 | 1.07
